# Columns and labels:
# [1] = tested on: filamentous fungi 18S, T3; assay: General 6-plex Fuel Assay (multiplexed PCR after centrifugation/DNaseI processing) of commercial fleet diesel samples before and after biocide treatment; type: cell-based; details: real-world diesel samples from commercial fleets, after vs before biocide treatment; FIG. 41
# Excerpt: (§1) The approach relies in part on centrifugation to allow phase separation and to separate the intact microbial cells and cellular debris from the exposed, extracellular genomic DNA material. The extracellular material is then selectively degraded with addition of an enzyme, DNaseI. Note than DNA degradation enzymes in addition to DNAseI can be used in this approach-many such enzymes are available including restriction enzymes (particularly frequent cutters), other endonucleases, and exonucleases. DNA may also be degraded using physical methods.
# (§2) Mock fuel samples were prepared by adding 200 μl of buffer (e.g. 1×PBS, or a preferred solution to prevent cells from lysing while providing an optimal chemical environment for downstream processing) to 800 μl of diesel fuel (previously determined to be negative for microbial contamination) and spiked with 500 ng of purified Bacillus DNA and live Pseudomonas cells (approximately […]). This allowed clear distinction between DNA present extracellularly and intracellularly. The resulting sample was mixed by multiple inversions and then subjected to centrifugation at 20,000×g for 2 minutes to pelletize the live Pseudomonas cells. […]
# (§3) Biocide performance was also measured using an ATP assay for measurement of total microbial load. […]
# general bacteria 16S,T1 = assay: as above; type: cell-based; details: real-world diesel samples from commercial fleets, after vs before biocide treatment; FIG. 41
# Excerpt: as §1, §2, §3
smiles,measurement,setting,value
"N#CSCSC#N [biocide, methylenebisthiocyanate]","filamentous fungi 18S, T3 signal after biocide treatment",[1],loss
same,"decline in general bacteria 16S,T1 signal after biocide treatment","general bacteria 16S,T1",approximately 75%
